# Article PMC12074795, “Synthesis and biological evaluation of esterified anti-inflammatory drugs with ethylene glycol linkers: cytotoxicity, anti-inflammatory and antioxidant properties” (Royal Society Open Science, 2025)
# What was measured:
# Type in all cases: biochemical
# [1] = Ferric reducing antioxidant power (FRAP) test; details: 505 nm
# Experimental: (§1) The in vitro antioxidant ability of the compounds synthesized in this work was evaluated using three different assays, including (i) the ABTS radical cation reduction-decolorization test, which uses the technique of Khan et al. consisting of the reduction of the cation radical by an antioxidant through the discoloration measured by absorption at the wavelength of 734 nm; (ii) interaction with the stable free radical DPPH, based on Bassene’s method, in which the scavenging of DPPH radicals is carried out by a colorimetric method consisting of the reduction of the DPPH radical, determined by its absorption at a wavelength of 517 nm; and (iii) the FRAP test according to the protocol of Path Canada, based on the ability of a substance to reduce Fe^3+ ions to Fe^2+ ions, which, in the presence of 1,10-phenanthroline, form a red-orange complex whose optical density can be measured at 505 nm.
# The Fe^3+ reduction test followed Path Canada’s protocol with some modifications, assessing the reduction of Fe^3+ ions to Fe^2+ ions, which form a red-orange complex with 1,10-phenanthroline, measurable at 505 nm. The colour intensity correlates with the amount of Fe^3+ reduced. Four solutions were prepared: 1.2 mg ml^−1 of Fe^3+ solution (1.2 mg FeCl3 in 1 ml distilled H2O), 0.2% ortho-phenanthroline solution (200 mg powder in 100 ml ethanol), 2 mg ml^−1 of gallic acid solution (2 mg gallic acid in 1 ml distilled H2O) as a positive control, stock and dilute solutions of the synthesized compounds (see §3.2.5.1). In a 96-well microplate, 180 µl distilled H2O was added to the first column and 100 µl to others for dilution. Each compound solution (20 µl at 10 mg ml^−1) was mixed with 25 µl Fe^3+ solution and incubated for 15 min in the dark at room temperature. Afterwards, 50 µl ortho-phenanthroline solution was added, followed by another 15 min incubation. Optical density was measured at 505 nm using a TECAN M200 plate reader. The positive control was treated similarly to the DPPH and ABTS assays.
# (§2) The percentages of scavenging or 50% reduction were calculated using gallic acid as a standard for 100% reduction. The concentration of radical scavengers needed to neutralize 50% of free radicals, referred to as SC50, was determined using GraphPad Prism 8.0.1 software (244).
# [2] = ABTS radical cation scavenging (decolorization) test; details: 734 nm, 30 min
# Experimental: as §1
# The modified technique by Khan et al. was used to scavenge ABTS^+• cation radicals through a discoloration test. In this test, potassium permanganate (KMnO4) or potassium persulphate (K2S2O8) reacts with ABTS to generate a blue-green ABTS^+• radical. Antioxidants reduce this radical, leading to a measurable colour change at 734 nm, proportional to the antioxidant concentration. The antioxidant capacity is assessed by comparing the intensity reduction of ABTS colour with that of a reference antioxidant, gallic acid. Stock and dilute solutions of synthetic compounds were prepared as detailed in §3.2.5.1. Diluted concentrations were (50, 25, 12.5, 6.25, 3.125, 1.5625 and 0.78125)/Mi in mM. The ABTS solution was obtained by mixing ABTS with K2S2O8, producing an intense blue colour. The ABTS^+• radical was generated by combining equal volumes of a 4.9 mM K2S2O8 solution and a 7 mM ABTS stock solution, stored in the dark at room temperature for 15 h before use. The 7 mM ABTS stock was then diluted 20 times with distilled water. A total of 25 µl of each dilution was added to wells along with 75 µl of 0.175 mM ABTS+ solution. After 30 min of incubation in the dark at room temperature, optical densities were measured at 734 nm. Negative controls contained the ABTS reagent without synthesized compounds, while positive controls used gallic acid at the same final concentrations as the compounds. Compounds were also tested alone to assess fluorescence. The reduction of ABTS results in a blue discoloration, with lower absorbance indicating higher antioxidant activity.
# as §2
# [3] = DPPH radical scavenging test; details: 517 nm, 30 min
# Experimental: as §1
# The DPPH radical trapping protocol is based on Bassene’s method, modified for colorimetric analysis. DPPH is a stable purple organic nitrogen radical that absorbs light at 517 nm. When an anti-free radical agent is present, DPPH is reduced to a stable yellow compound, indicated by a loss of colour between 470 and 517 nm. A 0.02% DPPH solution was made with ethanol and stored in a sealed jar in the dark. Stock solutions of the synthesized compounds were prepared by dissolving 100 mg of each in 1 ml of DMSO, and the final concentration of DMSO concentration in the first well was 0.5%. These stocks were then diluted to achieve concentrations (500, 250, 125, 62.5, 31.25, 15.625 and 7.8125)/Mi in mM (Mi: molecular weight of each synthetic compound). Each dilution (25 µl) was put to the wells and 75 µl of the DPPH solution (0.02%) were added. Optical densities were measured at 517 nm after 30 min of incubation in the dark. The negative control used DPPH alone, while the positive control used gallic acid treated with solutions of the synthesized compounds at final concentrations (50, 25, 12.5, 6.25, 3.125, 1.5625 and 0.78125)/Mi in mM. Synthesized compounds were also tested alone to assess fluorescence.
# Assays were performed in duplicate, and results were averaged. Percentage inhibition (PI), reflecting the antioxidant activity related to the DPPH˙ radical scavenging effect, was calculated using the following formula:
# (PI)=Acontrol−Atest/Acontrol×100,
# where Acontrol = absorbance of the control sample and Atest = absorbance of the tested sample.
# as §2
# [4] = first replicate, read-out: FRAP SC50(1)
# [5] = mean of duplicate, read-out: FRAP mean SC50
# [6] = second replicate, read-out: FRAP SC50(2)
# [7] = first replicate, read-out: ABTS SC50(1)
# [8] = mean of duplicate, read-out: ABTS mean SC50
# [9] = second replicate, read-out: ABTS SC50(2)
# [10] = first replicate, read-out: DPPH SC50(1)
# [11] = mean of duplicate, read-out: DPPH mean SC50
# [12] = second replicate, read-out: DPPH SC50(2)
Structure (SMILES),"EC50 [1, 4]","EC50 [1, 5]","EC50 [1, 6]","EC50 [2, 7]","EC50 [2, 8]","EC50 [2, 9]","EC50 [3, 10]","EC50 [3, 11]","EC50 [3, 12]"
"O=C(O)/C=C/c1ccccc1 [Compound 11, cinnamic acid, reference compound]",13.8 mM,13.7 mM,13.6 mM,5.83 mM,5.91 mM,5.98 mM,11.1 mM,11 mM,10.9 mM
"O=C(OCCOC(=O)c1ccccc1O)c1ccccc1O [Compound 13, Ethane-1,2-diyl bis(2-hydroxybenzoate)]",6.73 mM,6.69 mM,6.66 mM,0.21 mM,0.2 mM,0.2 mM,6.61 mM,,6.46 mM
"CC(C)Cc1ccc(C(C)C(=O)OCCOC(=O)C=Cc2ccccc2)cc1 (stereo not shown) [Compound 14, 2-((2-(4-isobutylphenyl)propanoyl)oxy)ethyl cinnamate]",7.68 mM,,7.27 mM,0.18 mM,0.18 mM,0.18 mM,6.64 mM,6.13 mM,6.68 mM
"CC(C)Cc1ccc(C(C)C(=O)OCCO)cc1 (stereo not shown) [Compound 3, 2-hydroxyethyl 2-(4-isobutylphenyl)propanoate]",7.58 mM,7.48 mM,7.39 mM,3.7 mM,3.9 mM,4.11 mM,10.5 mM,10.4 mM,10.4 mM
"O=C(/C=C/c1ccccc1)OCCOC(=O)c1ccccc1O [Compound 12, (E)-2-(cinnamoyloxy)ethyl 2-hydroxybenzoate]",6.21 mM,6.21 mM,6.22 mM,3.36 mM,3.47 mM,3.6 mM,8.63 mM,8.68 mM,8.73 mM
"O=C(OCCO)c1ccccc1O [Compound 7, 2-hydroxyethyl 2-hydroxybenzoate]",11 mM,10.9 mM,10.9 mM,0.21 mM,0.21 mM,0.21 mM,12.2 mM,12.1 mM,12.1 mM
CCCCCCCCCCCC(=O)OCCOC(=O)c1ccccc1O [DEW4a],8.06 mM,8.03 mM,8 mM,3.24 mM,3.25 mM,3.3 mM,5.82 mM,5.79 mM,5.77 mM
"CC(C)Cc1ccc(C(=O)OCCOC(=O)C(C)c2ccc(CC(C)C)cc2)cc1 (stereo not shown) [Compound 2, 2-((2-(4-isobutylphenyl)propanoyl)oxy)ethyl 4-isobutylbenzoate]",6.79 mM,6.79 mM,6.79 mM,1.67 mM,1.7 mM,1.73 mM,5.05 mM,4.92 mM,4.78 mM
"CCCCCCCCCCCC(=O)OCCOC(=O)C(C)c1ccc(CC(C)C)cc1 (stereo not shown) [Compound 5a, 2-((2-(4-isobutylphenyl)propanoyl)oxy)ethyl dodecanoate]",4.66 mM,4.67 mM,4.67 mM,2.77 mM,2.79 mM,2.81 mM,3.5 mM,3.52 mM,3.53 mM
"CC(C)Cc1ccc(C(C)C(=O)O)cc1 (stereo not shown) [Compound 1, ibuprofen, reference compound]",12.9 mM,13 mM,13.2 mM,0.21 mM,0.2 mM,0.2 mM,9.81 mM,10 mM,10.2 mM
